Experiments:
[1] = system: endogenous Abi1, Wasf1, Cyfip2 and Nckap1; assay: GFP-Trap co-IP of endogenous WRC components in GE11tetONβ1 cells; format: binding
Protocol: (§1) For analysis of protein in whole-cell lysates, cells were washed three times with cold PBS, lysed in Nonidet P-40 lysis buffer [20 mM Tris-HCl pH 7.5, 100 mM NaCl, 1% NP-40), supplemented with Na3VO4 (1.5 mM), NaF (15 mM), protease inhibitor cocktail (1:1000; Sigma-Aldrich) and phosphatase inhibitor cocktail 3 (1:100; Sigma-Aldrich)] and cleared by centrifugation at 14,000 g for 1 h at 4°C. After addition of an equal volume of 4× sample buffer (200 mM Tris-HCl pH 6.8, 10% SDS, 40% glycerol 0,1% Bromophenol Blue and 2% mercaptoethanol) and heating the samples at 95°C for 5 min, the samples were loaded on Novex NuPAGE 4–12% gradient Bis-Tris gels (Invitrogen) and transferred onto Immobilon® PVDF membranes. […]
(§2) GFP-Trap pulldown experiments were performed as follows. Cleared lysates containing equal amounts of proteins, as determined by a Pierce™ BCA Protein Assay, were incubated with GFP-Trap agarose beads (Chromotek) in a rotation wheel for 6 h at 4°C. […]

[2] = system: GE11tetONβ1 cells; assay: Cell migration (time-lapse cell motility) of GE11tetONβ1 cells; format: cell-based; conditions: 20 h time-lapse, DMEM 1% FCS; two independent experiments
Protocol: Cell motility assays were conducted using time-lapse recordings of cells cultured on plastic 12-well plates in DMEM containing 1% FCS and 1% antibiotics. Phase-contrast images were acquired using a Zeiss AxioObserver Z.1 microscope equipped with a heated stage (37°C and 5% CO2), with a 10×/0.30 EC Plan-Neofluar Ph1 objective (Zeiss), captured with a Zeiss AxioCam MRm. Images were acquired every 10 min for 20 h. Cells were tracked manually using ImageJ; tracking data was analyzed using the Chemotaxis Tool plugin (Ibidi).

[3] = system: endogenous talin; assay: GFP-Trap pulldown of talin by Caskin2-GFP constructs in COS-7 cells; format: binding; conditions: western blot, n=3
Protocol: (§3) For transient expression, COS-7 cells were grown to 70% confluence in 10 cm culture dishes and transfected with plasmid DNAs using the DEAE–dextran method ([Schaapveld et al., 1998]). Briefly, 4.5 µg of plasmid DNA was mixed with 500 µg/ml DEAE–dextran in 2.5 ml PBS. Cells were washed two times with PBS and then incubated for 30 min at 37°C with the DEAE–dextran solution. Subsequently, 80 µM chloroquine was added to the cells in 10 ml DMEM with FCS and cells were incubated at 37°C for 3 h. After aspiration of the medium, the cells were treated with 3 ml of DMEM with FCS containing 10% DMSO for 2.5 min. The DMSO solution was then removed and replaced with fresh medium, after which the cells were further incubated for 48–72 h before analysis.
as §1, §2

[4] = system: HA–Abi1; assay: GFP-Trap co-IP of HA–Abi1 by Caskin2-GFP constructs in COS-7 cells; format: binding; conditions: for HA–Abi1 binding: GFP-Trap, western blot, three independent experiments
Protocol: as §3
(§4) For analysis of protein in whole-cell lysates, cells were washed three times with cold PBS, lysed in Nonidet P-40 lysis buffer [20 mM Tris-HCl pH 7.5, 100 mM NaCl, 1% NP-40), supplemented with Na3VO4 (1.5 mM), NaF (15 mM), protease inhibitor cocktail (1:1000; Sigma-Aldrich) and phosphatase inhibitor cocktail 3 (1:100; Sigma-Aldrich)] and cleared by centrifugation at 14,000 g for 1 h at 4°C. After addition of an equal volume of 4× sample buffer (200 mM Tris-HCl pH 6.8, 10% SDS, 40% glycerol 0,1% Bromophenol Blue and 2% mercaptoethanol) and heating the samples at 95°C for 5 min, the samples were loaded on Novex NuPAGE 4–12% gradient Bis-Tris gels (Invitrogen) and transferred onto Immobilon® PVDF membranes. Membranes were blocked for at least 2 h in 2% BSA in TBST (10 mM Tris-HCl pH 7.5, 150 mM NaCl with 0.05% Tween 20] before incubation with primary antibody overnight at 4°C and with secondary antibody for 1 h at room temperature. After each incubation step, the membranes were washed twice with TBST and twice with TBS (TBST without Tween 20). Finally, proteins were visualized using Clarity™ Western ECL Substrate (Bio-Rad Laboratories), as described previously ([Wang et al., 2020b]).
(§5) GFP-Trap pulldown experiments were performed as follows. Cleared lysates containing equal amounts of proteins, as determined by a Pierce™ BCA Protein Assay, were incubated with GFP-Trap agarose beads (Chromotek) in a rotation wheel for 6 h at 4°C. Beads were washed three times with Nonidet P-40 lysis buffer and two times with cold PBS. Bound proteins and input samples (whole-cell lysates, 1%) were then loaded on gel and transferred to Immobilon-P transfer membranes, after which the blotted proteins were probed with antibodies, as described above.

[5] = system: 14-3-3 proteins; assay: GFP-Trap co-IP of 14-3-3 proteins in GE11tetONβ1 cells; format: binding
Protocol: as §1, §2

[6] = system: Abi1; assay: Immunofluorescence colocalization of Caskin2-GFP constructs with Abi1 in GE11tetONβ1 cells; format: cell-based; conditions: cell periphery
Protocol: PA-JEB/β4 keratinocytes were seeded on glass coverslips and cultured for 24 h in complete KGM, and then continued to be cultured for a further 16 h in DMEM with 10% FCS. GE11^tetONβ1 and MCF7 cells were seeded on glass coverslips and cultured for 24 h in DMEM with 10% FCS. Cells were fixed in 2% paraformaldehyde and permeabilized with 0.2% Triton X-100 for 5 min, blocked with PBS containing 2% bovine serum albumin (BSA; Sigma-Aldrich) for 45 min and subsequently incubated with primary and secondary antibodies for 1 h. In between antibody steps, the coverslips were washed three times with PBS. Actin fibers were visualized by staining with Phalloidin–Alexa Fluor 647 (Cell Signaling Technology). Nuclei were stained with DAPI. Samples were mounted on glass slides in Mowiol after three washing steps with PBS. Images were acquired with a Leica TCS SP5 confocal microscope with a 63× (NA 1.4) oil objective. Software for image acquisition is Leica LAS AF 3.0.2 ([Wang et al., 2020b]).
Imaging analysis was performed using FIJI software ([Schindelin et al., 2012]). The levels of colocalization between Caskin2 and various other proteins, including integrin β4, FA proteins and CMSC components, was performed using Pearson's co-efficient analysis in the JACoP module of ImageJ ([Carisey et al., 2013]; [Wang et al., 2020b]).

[7] = system: talin; assay: GFP-Trap pulldown of talin by Caskin2-GFP constructs in GE11tetON β1 cells; format: binding; conditions: western blot, with and without doxycycline
Protocol: as §1, §2

[8] = system: pCaskin2 (S878); assay: Caskin2 S878 phosphorylation (GFP-Trap, western blot) in GE11tetONβ1 cells; format: cell-based; conditions: for Caskin2 phosphorylation on S878 after growth factor: EGF 100 ng/ml or PDGF 50 ng/ml, serum-starved 16 h; for EGF-induced phosphorylation of Caskin2 at serine 878 with inhibitor: inhibitor 100 nM, 1 h pretreatment, EGF 100 ng/ml for 15 min
Text: To explore the role of Caskin2-S878 further in regulating the Abi1 interaction, we developed a phospho-specific antibody targeting this serine. Unfortunately, high non-specific binding of the phospho-Caskin2 antibody protein sample prevented its consistent use in detecting phosphorylated Caskin2 in western blot analysis of whole-cell lysates. […] Abi1 functions downstream of growth factor receptor signaling to control Rac1-dependent actin rearrangements. Therefore, we hypothesized that Caskin2-S878 phosphorylation might occur downstream of growth factor receptor stimulation. To explore this, we conducted co-IP experiments using GE11^tetONβ1 cells stably expressing Caskin2-FL–GFP stimulated with either EGF or PDGF. […] To gain insight into the kinases involved in the EGF-induced phosphorylation of Caskin2 at serine 878, we pretreated the cells with mTOR (AZD8055) and MEK1/2 (Trametinib) inhibitors for 1 h before stimulation.
as §4, §5
For EGF- and PDGF-BB-induced stimulation of Caskin2 phosphorylation, cells were serum starved for 16 h in DMEM without FCS. […]

[9] = system: Caskin2–Abi1; assay: Caskin2–Abi1 binding after growth factor stimulation (GFP-Trap, western blot) in GE11tetONβ1 cells; format: cell-based; conditions: for Caskin2–Abi1 binding after growth factor: EGF 100 ng/ml or PDGF 50 ng/ml, serum-starved 16 h; for EGF-stimulated loss of Abi1 binding with inhibitor: inhibitor 100 nM, 1 h pretreatment, EGF 100 ng/ml for 15 min
Protocol: (§6) For analysis of protein in whole-cell lysates, cells were washed three times with cold PBS, lysed in Nonidet P-40 lysis buffer [20 mM Tris-HCl pH 7.5, 100 mM NaCl, 1% NP-40), supplemented with Na3VO4 (1.5 mM), NaF (15 mM), protease inhibitor cocktail (1:1000; Sigma-Aldrich) and phosphatase inhibitor cocktail 3 (1:100; Sigma-Aldrich)] and cleared by centrifugation at 14,000 g for 1 h at 4°C.
as §5
For EGF- and PDGF-BB-induced stimulation of Caskin2 phosphorylation, cells were serum starved for 16 h in DMEM without FCS. The serum-starved cells were then treated with 100 ng/ml EGF (Sigma-Aldrich) or 50 ng/ml PDGF-BB (Sigma-Aldrich) at 37°C for the indicated times. Serum-starved cells treated with EGF and the signal transduction inhibitors AZD8055 (mTOR inhibitor, Selleckchem) and Tramatinib (MEK1/2 inhibitor, Selleckchem) were first pre-treated with the inhibitor for 60 min before they were treated with the growth factor for 15 min.

[10] = system: Caskin2; assay: GFP-Trap co-IP of Caskin2 by GFP-tagged talin constructs in COS-7 cells; format: binding, Human; conditions: western blot
Protocol: as §3
as §6, with “4°C. […]” for “4°C.”
as §2

Caskin2-PRR^4A–GFP: Caskin2–GFP with PxPxxPxR mutated to AxAxxAxA
precipitation of endogenous Abi1, Wasf1, Cyfip2 and Nckap1 [1]: none of these were precipitated
cell motility [2]: migrated at a similar speed as GFP-only-expressing cells
talin binding [3]: talin binding was unaffected
HA–Abi1 binding [4]: neither of these constructs could precipitate co-expressed HA-tagged Abi1
precipitation of 14-3-3 proteins [5]: precipitated with both Caskin2-FL–GFP and Caskin2-PRR^4A–GFP
colocalization with Abi1 [6]: no such colocalization was observed

Caskin2-FL–GFP: full-length Caskin2 fused to GFP
precipitation of endogenous Abi1, Wasf1, Cyfip2 and Nckap1 [1]: precipitated endogenous Abi1, Wasf1, Cyfip2 and Nckap1
increase in cell motility compared to GFP-only expression [2]: ~45%
HA–Abi1 binding [4]: efficiently pulled down
talin binding [7]: the interaction is independent of integrin β1
precipitation of 14-3-3 proteins [5]: precipitated with both Caskin2-FL–GFP and Caskin2-PRR^4A–GFP
colocalization with Abi1 [6]: colocalized with Abi1 at the cell periphery

EGF: growth factor (Sigma-Aldrich)
Caskin2 phosphorylation on S878 after growth factor [8]: increase in Caskin2 phosphorylation on S878 within 5 min
Caskin2–Abi1 binding after growth factor [9]: reduction in Caskin2–Abi1 binding

Caskin2-S877D–GFP: phosphomimetic mutant of Caskin2–GFP, S877 to aspartic acid
HA–Abi1 binding [4]: no obvious difference in binding

Caskin2-ΔPRR–GFP: Caskin2–GFP lacking amino acids 746–1035
cell motility [2]: migrated at a similar speed as GFP-only-expressing cells
talin binding [3]: talin binding was unaffected
HA–Abi1 binding [4]: neither of these constructs could precipitate co-expressed HA-tagged Abi1
colocalization with Abi1 [6]: no such colocalization was observed

PDGF
Caskin2 phosphorylation on S878 after growth factor [8]: increase in Caskin2 phosphorylation on S878 within 5 min
Caskin2–Abi1 binding after growth factor [9]: reduction in Caskin2–Abi1 binding

Talin-R2E–GFP: talin mutant carrying two reverse charge mutations (R1523E and K1530E)
Caskin2 binding to talin construct [10]: slightly increased binding

Caskin2-ΔLD–GFP: Caskin2 construct with the LD motif deleted (L1183–D1202 deleted) fused to GFP
cell motility [2]: no difference in motility between Caskin2-FL–GFP- and Caskin2-ΔLD–GFP- expressing cells
talin binding [7]: the LD motif is required for the interaction with talin

Caskin2-4A–GFP: GFP-fused Caskin2 mutant with four amino acids (L1183, F1190, L1197, L1201) replaced by alanine
talin binding [3]: failed to pull down endogenous talin

COc1ccc(-c2ccc3c(N4CCOC[C@@H]4C)nc(N4CCOC[C@@H]4C)nc3n2)cc1CO [AZD8055, reference compound]
EGF-induced phosphorylation of Caskin2 at serine 878 with inhibitor [8]: reduced phosphorylation of Caskin2
EGF-stimulated loss of Abi1 binding with inhibitor [9]: only Trametinib, either alone or in combination with AZD8055 inhibited the EGF-stimulated loss of Abi1 binding

full-length exogenous talin: full-length exogenous talin, GFP-tagged
Caskin2 binding to talin construct [10]: only limited binding

Caskin2-S878D–GFP: phosphomimetic mutant of Caskin2–GFP, S878 to aspartic acid
reduction of HA–Abi1 binding ([4]; co-IP, phosphomimetic mutant): ~80%

CC(=O)Nc1cccc(-n2c(=O)n(C3CC3)c(=O)c3c(Nc4ccc(I)cc4F)n(C)c(=O)c(C)c32)c1 [Trametinib, reference compound]
EGF-induced phosphorylation of Caskin2 at serine 878 with inhibitor [8]: reduced phosphorylation of Caskin2
EGF-stimulated loss of Abi1 binding with inhibitor [9]: inhibited the EGF-stimulated loss of Abi1 binding
